According to US7569578B2, “Heterocyclic anti-migraine agents” (Bristol-Meyers Squibb Company, priority 2003, dated 2009):

Target: T1, Human CGRP1 Receptor (Homo sapiens, UniProt O60894+Q16602)
T1 construct: endogenous in cells; host or cells: SK-N-MC cells (membrane homogenate)
Test: CGRP Binding Assay ([125I]-CGRP radioligand displacement, SK-N-MC membrane homogenate)
Conditions: [125I]-CGRP displacement, SK-N-MC homogenate, room temperature 2 h; read-out: Human CGRP1 Receptor IC50

T1 sequence (Q16602 23-461): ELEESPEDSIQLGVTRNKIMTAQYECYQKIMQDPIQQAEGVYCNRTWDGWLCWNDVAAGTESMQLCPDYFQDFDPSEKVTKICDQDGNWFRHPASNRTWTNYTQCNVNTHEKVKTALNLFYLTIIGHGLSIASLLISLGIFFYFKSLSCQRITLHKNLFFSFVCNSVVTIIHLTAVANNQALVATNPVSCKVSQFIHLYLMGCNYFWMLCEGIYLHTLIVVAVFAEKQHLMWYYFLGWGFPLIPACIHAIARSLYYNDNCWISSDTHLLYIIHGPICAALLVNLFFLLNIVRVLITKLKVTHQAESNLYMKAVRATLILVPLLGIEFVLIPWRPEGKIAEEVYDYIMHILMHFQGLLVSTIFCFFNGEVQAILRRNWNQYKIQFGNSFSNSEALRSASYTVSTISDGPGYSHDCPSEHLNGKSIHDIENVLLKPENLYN
T1 sequence (O60894 27-148): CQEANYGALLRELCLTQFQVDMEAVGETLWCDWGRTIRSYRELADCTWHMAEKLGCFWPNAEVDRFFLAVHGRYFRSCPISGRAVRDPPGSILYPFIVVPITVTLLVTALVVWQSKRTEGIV

Compared with `CCc1ccnc(C(CC(=O)N2CCC(N3Cc4ccccc4NC3=O)CC2)Cc2cc(C)c3[nH]ncc3c2)c1` (racemic) [Example 22, (±)-3-(1-(3-(4-Ethylpyridin-2-yl)-4-(7-methyl-1H-indazol-5-yl)butanoyl)piperidin-4-yl)-3,4-dihydroquinazolin-2(1H)-one], `Cc1cc(CC(CC(=O)N2CCC(N3Cc4ccccc4NC3=O)CC2)c2ccccn2)cc2cn[nH]c12` (racemic) [Example 1, (±)-3-{1-[4-(7-Methyl-1H-indazol-5-yl)-3-pyridin-2-yl-butyryl]-piperidin-4-yl}-3,4-dihydro-1H-quinazolin-2-one] is lower in IC50: 10 to 100 nM for the first, under 10 nM for the second.

`Cc1cc(CC(OC(=O)N2CCC(N3Cc4ccccc4NC3=O)CC2)c2cccnc2)cc2cn[nH]c12` (stereo not drawn) [Example 58, 2-(7-Methyl-1H-indazol-5-yl)-1-(pyridin-3-yl)ethyl 4-(2-oxo-1,2-dihydroquinazolin-3(4H)-yl)piperidine-1-carboxylate] and `Cc1cc(CC(OC(=O)N2CCC(N3Cc4cccc(F)c4NC3=O)CC2)c2cccnc2)cc2cn[nH]c12` (stereo not drawn) [Example 59, 2-(7-Methyl-1H-indazol-5-yl)-1-(pyridin-3-yl)ethyl 4-(8-fluoro-2-oxo-1,2-dihydroquinazolin-3(4H)-yl)piperidine-1-carboxylate] fall in the same range of IC50: 100 to 1000 nM for the first, 100 to 1000 nM for the second.

`Cc1cc(CC(NC(=O)N2CCC(N3Cc4ccccc4NC3=O)CC2)c2nccn2Cc2ccc(F)cc2)cc2cn[nH]c12` (racemic) [Example 72, (±)-N-(1-(1-(4-Fluorobenzyl)-1H-imidazol-2-yl)-2-(7-methyl-1H-indazol-5-yl)ethyl)-4-(2-oxo-1,2-dihydroquinazolin-3(4H)-yl)piperidine-1-carboxamide] and `Cc1cc(CC(NC(=O)N2CCC(N3Cc4ccccc4NC3=O)CC2)c2nccn2Cc2ccc(C(C)(C)C)cc2)cc2cn[nH]c12` (racemic) [Example 75, (±)-N-(1-(1-(4-tert-Butylbenzyl)-1H-imidazol-2-yl)-2-(7-methyl-1H-indazol-5-yl)ethyl)-4-(2-oxo-1,2-dihydroquinazolin-3(4H)-yl)piperidine-1-carboxamide] cannot be ordered by IC50: under 10 nM for the first, under 10 nM for the second.

Compared with `Cc1c[nH]c(C(Cc2cc(C)c3[nH]ncc3c2)NC(=O)N2CCC(N3Cc4ccccc4NC3=O)CC2)n1` (racemic) [Example 90, (±)-N-(1-(4-Methyl-1H-imidazol-2-yl)-2-(7-methyl-1H-indazol-5-yl)ethyl)-4-(2-oxo-1,2-dihydroquinazolin-3(4H)-yl)piperidine-1-carboxamide], `Cc1cccc(C(Cc2cc(C)c3[nH]ncc3c2)NC(=O)N2CCC(N3Cc4ccccc4NC3=O)CC2)n1` (racemic) [Example 38, (±)-N-(2-(7-Methyl-1H-indazol-5-yl)-1-(6-methylpyridin-2-yl)ethyl)-4-(2-oxo-1,2-dihydroquinazolin-3(4H)-yl)piperidine-1-carboxamide] is lower in IC50: 100 to 1000 nM for the first, under 10 nM for the second.

First: Cc1cc(CC(CC(=O)N2CCC(N3Cc4ccccc4NC3=O)CC2)c2ccc(CO)cn2)cc2cn[nH]c12 (racemic) [Example 27, (±)-3-(1-(3-(5-(Hydroxymethyl)pyridin-2-yl)-4-(7-methyl-1H-indazol-5-yl)butanoyl)piperidin-4-yl)-3,4-dihydroquinazolin-2(1H)-one]
Second: Cc1noc(C(CC(=O)N2CCC(N3Cc4ccccc4NC3=O)CC2)Cc2cc(C)c3[nH]ncc3c2)n1 (racemic) [Example 5, (±)-3-{1-[4-(7-Methyl-1H-indazol-5-yl)-3-(3-methyl-[1,2,4]oxadiazol-5-yl)-butyryl]-piperidin-4-yl}-3,4-dihydro-1H-quinazolin-2-one]
The IC50 of the first is lower: under 10 nM for the first, 10 to 100 nM for the second. The first is the more potent here.

Compared with `Cc1cc(CC(NC(=O)N2CCC(N3Cc4cccc(F)c4NC3=O)CC2)c2nnnn2CC2CCNCC2)cc2cn[nH]c12` (racemic) [Example 81, (±)-4-(8-Fluoro-2-oxo-1,2-dihydroquinazolin-3(4H)-yl)-N-(2-[7-methyl-1H-indazol-5-yl]-1-[1-(piperidin-4-ylmethyl)-1H-tetrazol-5-yl]ethyl)piperidin-1-carboxamide], `Cc1cc(CC(NC(=O)N2CCC(N3Cc4cccc(F)c4NC3=O)CC2)c2nnn[nH]2)cc2cn[nH]c12` (racemic) [Example 80, (±)-4-(8-Fluoro-2-oxo-1,2-dihydroquinazolin-3 [4H]-yl)-N-(2{7-methyl-1H-indazol-5-yl}-1-{1H-tetrazol-5-yl}ethyl)piperidin-1-carboxamide] is higher in IC50: under 10 nM for the first, 100 to 1000 nM for the second.

First: Cc1cc(CC(OC(=O)N2CCC(N3Cc4ccccc4NC3=O)CC2)c2cccc(=O)[nH]2)cc2cn[nH]c12 (racemic) [Example 42, (±)-2-(7-Methyl-1H-indazol-5-yl)-1-(6-oxo-1,6-dihydropyridin-2-yl)ethyl 4-(2-oxo-1,2-dihydroquinazolin-3(4H)-yl)piperidine-1-carboxylate]
Second: Cc1cc(CC(OC(=O)N2CCC(N3Cc4ccccc4NC3=O)CC2)c2ccccn2)cc2cn[nH]c12 (stereo not drawn) [Example 54, 2-(7-methyl-1H-indazol-5-yl)-1-(pyridin-2-yl)ethyl 4-(2-oxo-1,2-dihydroquinazolin-3(4H)-yl)piperidine-1-carboxylate]
The IC50 of the first is higher: 100 to 1000 nM for the first, under 10 nM for the second. The second is the more potent here.

First: Cc1cc(C[C@@H](OC(=O)N2CCC(c3cc4ccccc4[nH]c3=O)CC2)c2nc(-c3ccc(F)cc3)no2)cc2cn[nH]c12 [Example 100, (R)-1-(3-(4-Fluorophenyl)-1,2,4-oxadiazol-5-yl)-2-(7-methyl-1H-indazol-5-yl)ethyl 4-(2-oxo-1,2-dihydroquinolin-3-yl)piperidine-1-carboxylate]
Second: Cc1cc(C[C@@H](OC(=O)N2CCC(c3cc4ccccc4[nH]c3=O)CC2)c2nccn2Cc2cc(F)cc(F)c2)cc2cn[nH]c12 [Example 78, (R)-1-(1-(3,5-difluorobenzyl)-1H-imidazol-2-yl)-2-(7-methyl-1H-indazol-5-yl)ethyl 4-(2-oxo-1,2-dihydroquinolin-3-yl)piperidine-1-carboxylate]
The IC50 of the first is higher: 100 to 1000 nM for the first, under 10 nM for the second. The second is the more potent here.

First: Cc1noc(C(CC(=O)N2CCC3(CC2)OC(=O)Nc2ccccc23)Cc2cc(C)c3[nH]ncc3c2)n1 (racemic) [Example 9, (±)-3-{1-[3-(3-Methyl-[1,2,4]oxadiazol-5-yl)-4-(7-methyl-1H-indazol-5-yl)-butyryl]-4,4′-piperidinyl}-1′,2′-dihydro-2′-oxospiro-[4H-3′,1-benzoxazine]
Second: Cc1cc(CC(CC(=O)N2CCC3(CC2)OC(=O)Nc2ccccc23)c2nc(Cc3ccccc3)no2)cc2cn[nH]c12 (racemic) [Example 8, (±)-3-{1-[3-(3-Benzyl-[1,2,4]oxadiazol-5-yl)-4-(7-methyl-1H-indazol-5-yl)-butyryl]-4,4′-piperidinyl}-1′,2′-dihydro-2′-oxospiro-[4H-3′,1-benzoxazine]
The IC50 of the first is higher: 100 to 1000 nM for the first, 10 to 100 nM for the second.

Compared with `CCc1cc(CC(NC(=O)N2CCC(N3Cc4ccccc4NC3=O)CC2)c2nnn(CCc3ccccc3)n2)cc2c(C)n[nH]c12` (racemic) [Example 16, (±)-4-(2-Oxo-1,4-dihydro-2H-quinazolin-3-yl)-piperidine-1-carboxylic acid [2-(7-ethyl-3-methyl-1H-indazol-5-yl)-1-(2-phenethyl-2H-tetrazol-5-yl)-ethyl]-amide], `Cc1cc(CC(NC(=O)N2CCC(N3Cc4ccccc4NC3=O)CC2)c2nccn2Cc2cccc(C(N)=O)c2)cc2cn[nH]c12` (racemic) [Example 77, (±)-N-(1-(1-(3-Carbamoylbenzyl)-1H-imidazol-2-yl)-2-(7-methyl-1H-indazol-5-yl)ethyl)-(2-oxo-1,2-dihydroquinazolin-3(4H)-yl)piperidine-1-carboxamide] is lower in IC50: 10 to 100 nM for the first, under 10 nM for the second.

First: Cc1cc(CC(OC(=O)N2CCC(N3Cc4cccc(F)c4NC3=O)CC2)c2ccccn2)cc2cn[nH]c12 (stereo not drawn) [Example 55, 2-(7-methyl-1H-indazol-5-yl)-1-(pyridin-2-yl)ethyl 4-(8-fluoro-2-oxo-1,2-dihydroquinazolin-3(4H)-yl)piperidine-1-carboxylate]
Second: Cc1cc(CC(OC(=O)N2CCC(N3Cc4ccccc4NC3=O)CC2)c2cccc(OC(C)(C)C)n2)cc2cn[nH]c12 (racemic) [Example 41, (±)-1-(6-tert-Butoxypyridin-2-yl)-2-(7-methyl-1H-indazol-5-yl)ethyl 4-(2-oxo-1,2-dihydroquinazolin-3(4H)-yl)piperidine-1-carboxylate]
The IC50 of the first is lower: under 10 nM for the first, 100 to 1000 nM for the second. The first is the more potent here.

Compared with `CCn1c(C(CC(=O)N2CCC(N3Cc4ccccc4NC3=O)CC2)CC2=CC3C=NNC3C(C)=C2)nc2ccccc21` (stereo not drawn) [Example 99, 3-(1-(3-(1-Ethyl-1H-benzo [d]imidazol-2-yl)-4-(7-methyl-3a,7a-dihydro-1H-indazol-5-yl)butanoyl)piperidin-4-yl)-3,4-dihydroquinazolin-2(1H)-one], `Cc1cc(CC(OC(=O)N2CCC(N3Cc4ccccc4NC3=O)CC2)c2cc3ccccc3o2)cc2cn[nH]c12` (stereo not drawn) [Example 64, 1-(Benzofuran-2-yl)-2-(7-methyl-1H-indazol-5-yl)ethyl 4-(2-oxo-1,2-dihydroquinazolin-3(4H)-yl)piperidine-1-carboxylate] is higher in IC50: under 10 nM for the first, 10 to 100 nM for the second.

First: Cc1cc(CC(NC(=O)N2CCC(N3Cc4ccccc4NC3=O)CC2)c2nc(CN(C)C)no2)cc2cn[nH]c12 (racemic) [Example 13, (±)-4-(2-Oxo-1,4-dihydro-2H-quinazolin-3-yl)-piperidine-1-carboxylic acid [1-(3-dimethylaminomethyl-[1,2,4]oxadiazol-5-yl)-2-(7-methyl-1H-indazol-5-yl)-ethyl]-amide]
Second: Cc1cc(CC(NC(=O)N2CCC(N3Cc4ccccc4NC3=O)CC2)c2nccn2Cc2cc(F)cc(F)c2)cc2cn[nH]c12 (racemic) [Example 69, (±)-N-(1-(1-(3,5-Difluorobenzyl)-1H-imidazol-2-yl)-2-(7-methyl-1H-indazol-5-yl)ethyl)-4-(2-oxo-1,2-dihydroquinazolin-3(4H)-yl)piperidine-1-carboxamide]
The IC50 of the first is higher: 100 to 1000 nM for the first, under 10 nM for the second. The second is the more potent here.

With `Cc1cc(CC(NC(=O)N2CCC(N3Cc4cccc(F)c4NC3=O)CC2)c2ccc3ccccc3n2)cc2cn[nH]c12` (racemic) [Example 35, (±)-4-(8-Fluoro-2-oxo-1,2-dihydroquinazolin-3(4H)-yl)-N-(2-(7-methyl-1H-indazol-5-yl)-1-(quinolin-2-yl)ethyl)piperidine-1-carboxamide] the IC50 was under 10 nM.
